Laboratory results reported in patent publication US20240343677A1, “L-ASPARTIC ACID N, N-DIACETIC ACID TETRASODIUM SALT AND PREPARATION METHOD THEREFOR” (HEFEI ALL-PLUS ENVIRONMENTAL TECNOLOGY CO., LTD., priority 2021, published 2024).

Tests used:
[1] = Solubility in water of different pH values and in concentrated sodium hydroxide solution; type: physicochemical; conditions: ASDA of Example 1
Description: It can also correspondingly reduce transportation and warehousing costs, and alleviate the problem of high transportation and warehousing costs.

[2] = Efficiency of removing calcium carbonate water scales; conditions: compared with other amino polymeric chelating agents (FIG. 6)
Description: 5. The ASDA can also be used for preventing water scale and precipitation and removing water scale.

[3] = Biodegradability of ASDA in sewage according to OECD 301B standard; conditions: 28 days, third-party detection, ASDA of Example 1
Experimental: FIG. 1 is a graph of biodegradability detection results of ASDA prepared in Example 1 of the present disclosure tested in a stable sewage environment;
1. […] The detection was carried out by a third-party detection mechanism.

[4] = Chelating ability for metal ions compared with other chelating agents; type: physicochemical; conditions: same condition as other chelating agents (FIG. 5)
[5] = Experimental: FIG. 4 is a thermogravimetric analysis graph of the ASDA prepared in Example 1 of the present disclosure;
3. Thermal stability and application environment adaptability of the L-aspartic acid N,N-diacetic acid tetrasodium salt (ASDA) prepared by the preparation method provided in Example 1 were detected. […] The thermal stability of ASDA-Na4 powder was measured by thermogravimetric analysis (TGA) and differential scanning calorimetry (DSC).

Row | SMILES | solubility under a strong alkali condition ([1]; concentrated sodium hydroxide solution (FIG. 3)) | solubility in low pH ([1]; water, low pH (FIG. 2)) | efficiency of removing CaCO3 scales [2] | 28-day biodegradability [3] | comprehensive performance in chelating metal ions [4] | moisture lost ([5]; ASDA solid, all moisture lost at about 250° C., TGA) | temperature above which rapid decomposition begins ([5]; ASDA-Na4 powder, TGA/DSC) | thermal stability (thermally more stable than ASDA) [5]
1 | O=C([O-])C[C@@H](C(=O)[O-])N(CC(=O)[O-])CC(=O)[O-].[Na+].[Na+].[Na+].[Na+] [ASDA, L-aspartic acid N,N-diacetic acid tetrasodium salt] | high solubility | high solubility | the best biodegradable chelate for removing CaCO3 scales | ≥ 60% | excellent | about 4% | above 380 °C | 
2 | O=C(O)CN(CCN(CC(=O)O)CC(=O)O)CC(=O)O [EDTA, ethylenediaminetetraacetic acid, reference compound] |  |  |  |  |  |  |  | > 150 °C
3 | O=C(O)CN(CC(=O)O)CC(=O)O [NTA, nitrilotriacetic acid, reference compound] |  |  |  |  |  |  |  | > 150 °C
